#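 Following 48 hours of exposure in 96-well plates, responses at five concentrations were used to interpolate endpoints linearly. The concentration for full growth arrest is given as TGI.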
# What was measured:
# Assay in all cases: inhibition of tumour cell growth, NCI panel, 48 h
# [1] = system: A549 NSCLC
# [2] = system: ACHN renal
# [3] = system: BT-549 breast
# [4] = system: CCRF-CEM leukemia
# [5] = system: EKVX NSCLC
# [6] = system: HOP-92 NSCLC
# [7] = system: MOLT-4 leukemia
# [8] = system: NCI/ADR-RES ovarian
# [9] = system: OVCAR-4 ovarian
# [10] = system: SN12C renal
# [11] = system: TK-10 renal
# [12] = system: UACC-62 melanoma
SMILES,TGI [1] [µM],TGI [2] [µM],TGI [3] [µM],TGI [4] [µM],TGI [5] [µM],TGI [6] [µM],TGI [7] [µM],TGI [8] [µM],TGI [9] [µM],TGI [10] [µM],TGI [11] [µM],TGI [12] [µM]
C[S+](C)C1(c2ccccc2)C(=O)c2ccccc2C1=O,97.7,> 100,35.6,> 85.8,76.9,> 100,> 100,> 100,> 100,> 100,> 100,> 62.7
CO/C=C(/C(=O)OC)c1ccccc1[C@H]1C[C@@H]1c1ccccc1,83.8,60.6,52.2,> 100,54.6,92.4,> 100,68.2,62.3,90.3,> 100,37.2
CCOC(=O)N1c2c(c3ccccc3n2C(=O)OCC)C(=O)C(OC)N1C(=O)OCC (stereo unspecified),> 100,92.7,> 100,> 100,> 100,> 100,50.8,62.1,> 100,> 100,> 100,> 100
